According to patent US6878751B1, “Administration of resveratrol to treat inflammatory respiratory disorders” (Imperial College of Science Technology and Medicine, priority 2000, dated 2005):

What was measured:
[1] = test system: IL-8 release, 16HBE-16o^− cells; experiment: IL-8 release (ELISA) in IL-1β stimulated 16HBE-16o− cells; format: cell-based; details: Homo sapiens, 1 ng/ml IL-1β, read-out: EC50 for inhibition of the release of IL-8
Protocol: (§1) The human airway epithelial cell line A549 may be employed to study resveratrol inhibition of the release of IL-8 (interleukin 8) and GM-CSF (granulocyte macrophage-colony stimulating factor) by a 1 ng/ml stimulation with IL-1β (interleukin 1β). A549 cells, BEAS-2B cells and 16HBE-16o^− cells were stimulated with 1 ng/ml levels of IL-1β in the presence of resveratrol.
(§2) Cells, including the A549 cells, were cultured in Dulbecco's modified Eagle's medium (DMEM) 10% (v/v) fetal calf serum (FCS), 100 μg/ml penicillin and 100 μg/ml streptomycin. IL-8 release was measured by commercially available ELISA kit (R&D Systems).

[2] = test system: GM-CSF release, A549 cells; experiment: GM-CSF release (sandwich assay) in IL-1β stimulated A549 cells; format: cell-based; details: Homo sapiens, 1 ng/ml IL-1β, read-out: EC50 for inhibition of GM-CSF release
Protocol: as §1, §2
GM-CSF release was measured in culture media by sandwich assay employing rat monoclonal capture antibody (Ab, mAb) against GM-CSF and a biotinylated rat anti-human GM-CSF mAb. The rat capture mAb against GM-CSF, diluted 1:500 in 0.1 M NaHCO3, was coated overnight at 4° C. onto 96 well plates. After washing, with wash buffer (NaCl: 145 mM, KCl: 4 mM, NaH2PO4: 10 mM, Tween-20: 0.05% (v/v), pH: 7.4) the plates were blocked by application of 10% (v/v) FCS at room temperature for 2 hours. After washing, samples and standards were added to the well plates and incubated at 4° C. overnight. […]

[3] = test system: NF-κB dependent transcription; experiment: NF-κB luciferase reporter in stably transfected A549 cells; format: cell-based, human
Protocol: (§3) The expression of inflammatory genes was then evaluated in cells transformed with luciferase reporter genes containing sites for transcription factors (Tf, Tfs). The A549 cells were stably transfected by routine methods with luciferase reporters containing the transcription factors NF-κB, TRE (AP-1, TPA responsive element) and CRE (cAMP responsive element). Luciferase activity of cell lysates resuspended in […] cell lysis buffer mixed (40 mml resuspended lysate: 40 mml assay reagent) was measured using the Luciferase Assay System (Promega), with emitted light measured by a Turner DesignsTD-20/20 luminometer (Steptech Instruments Ltd., Stevenage, U.K.)

[4] = test system: CRE dependent transcription; experiment: CRE luciferase reporter in stably transfected A549 cells; format: cell-based, human
Protocol: as §3

Patients with asthma [5] = experiment: Oral resveratrol clinical evaluation in asthma (Example 3); format: in vivo, human; details: oral, 200, 2000 or 3000 mg/day, about six months
Protocol: Resveratrol is evaluated clinically for efficacy in treating asthma. The methods of the following references are generally used in the evaluation of asthmatic disease: Wohl et al. (2000) N. Engl. J. Med. 343(15):1113-4; Agertoft et al. (2000) N. Engl. J. Med. 343(15):1064-9. Patients with asthma are treated once or more per day with gelatin capsules containing resveratrol. Patients are divided randomly and blindly into four approximately equal groups that receive either 0 (placebo), 200, 2000, or 3000 mg/day resveratrol for about six months in oral doses of 0, 50, 500, or 750 mg administered 4 times daily for about six months. Patients are medically monitored for clinical symptoms of asthma throughout the study, including frequency and severity of acute asthma attacks. […] In addition exhaled nitric oxide (NO) and carbon monoxide (CO) levels may be measured at more frequent intervals, such as every other week. Forced expiratory volume (FEV) and forced inspiratory volume (FIV) are also evaluated to measure airway patency as a direct measure of clinical morbidity and to determine correlation the histopathologic and other indicators of clinical disease, such as exhaled NO Immunhistopathologic examination of lung tissue biopsy samples taken at the same intervals as the blood samples are also examined for histopathologic evidence of extent and histology of inflammation.

Patients with asthma [6] = experiment: Pulmonary resveratrol clinical evaluation in asthma (Example 4); format: in vivo, human; details: inhaled, 4, 8 or 20 mg/day, about six months
Protocol: Resveratrol is evaluated clinically for efficacy in treating asthma when administered pulmonarily. The methods of the following references are generally used in the evaluation of asthmatic disease: Wohl et al. (2000) N. Engl. J. Med. 343(15):1113-4; Agertoft et al. (2000) N. Engl. J. Med 343(15):1064-9. Patients with asthma are treated once or more per day with inhalator delivered pulmonary administered doses of resveratrol. Patients are divided randomly and blindly into approximately equal groups that receive either 0 (placebo), 4, 8, or 20 mg/day resveratrol in inhaled doses of 0, 1, 2, or 5 mg administered 4 times daily for about six months. Patients are medically monitored for clinical symptoms of asthma throughout the study, including frequency and severity of acute asthma attacks. […] In addition exhaled nitric oxide (NO) and carbon monoxide (CO) levels may be measured at more frequent intervals, such as every other week. Forced expiratory volume (FEV) and forced inspiratory volume (FIV) are also evaluated to measure airway patency as a direct measure of clinical morbidity and to determine correlation the histopathologic and other indicators of clinical disease, such as exhaled NO Immunhistopathologic examination of lung tissue biopsy samples taken at the same intervals as the blood samples are also examined for histopathologic evidence of extent and histology of inflammation.

COPD patients = experiment: Pulmonary resveratrol clinical evaluation in COPD (Example 9); format: in vivo, human; details: inhaled, 4, 8 or 20 mg/day
Protocol: Pulmonary administration of resveratrol for COPD may be evaluated by the method preceding in Example 8, using the inhaled doses specified in Example 4. Specifically the subgroups receive either 0 (placebo), 4, 8, or 20 mg/day resveratrol in inhaled doses of 0, 1, 2, or 5 mg administered 4 times daily for th duration of the study.

Oc1ccc(/C=C/c2cc(O)cc(O)c2)cc1 [Resveratrol, 3,5,4′-trihydroxystilbene]
EC50 [1]: 8.9 ± 3.5 µM
EC50 [2]: 22 ± 8 µM
extent of inhibition of NF-κB dependent transcription [3]: completely
EC50 ([3]; Homo sapiens, read-out: EC50 for inhibition of NF-κB dependent transcription): 21 ± 7 µM
extent of inhibition of CRE dependent transcription [4]: 91%
EC50 ([4]; Homo sapiens, read-out: EC50 for inhibition of CRE dependent transcription): 30 ± 17 µM
efficacy in treating asthma (Patients with asthma [5]): effective for treating asthma
efficacy in treating asthma (Patients with asthma [6]): effective for treating asthma
efficacy in treating COPD (COPD patients): effective for treating COPD
